Consider three compounds from paper PMC2719774 (European journal of pharmaceutics and biopharmaceutics : …, 2009).

The Papp is a coefficient for how fast a substance crosses the barrier. A higher Papp goes with fast passage. For orientation: Kp means tissue or fluid exposure divided by exposure in the circulation. Broadly, the AUC(0-inf) is total exposure, with the tail of the curve extrapolated. A lower AUC(0-inf) goes with less exposure. A word on the AUC(0-t): it is the area under the concentration-time curve up to a stated or last time point. Low values mean low exposure, high ones high exposure. For orientation: Cmax means the maximum level reached in the sampled fluid or tissue. One may read the Tmax as the time from dosing to the highest level. For orientation: half-life means the time in which the quantity being followed falls by half. Low readings indicate fast loss, high ones slow loss. By CL/F is commonly meant clearance divided by bioavailability, as obtained after extravascular dosing. In general, Vd/F refers to the apparent distribution volume after extravascular dosing. For orientation: Papp B→A means how fast a substance crosses the layer from the basolateral side. As usually defined, the efflux ratio is a quotient of directional permeabilities that is used to spot active efflux.

One data set can be described thus: in vitro. The settings on record: dog, MDCK-MDR1.
For the next data set, the target named is CYP2D6 (Homo sapiens, UniProt P10635). Nature of the data set: In vitro metabolism screening with recombinant CYP2D6. The settings on record: 1 h, 37°C. The data set is classed as in vitro ADME.
Chain of CYP2D6 (P10635 whole entry): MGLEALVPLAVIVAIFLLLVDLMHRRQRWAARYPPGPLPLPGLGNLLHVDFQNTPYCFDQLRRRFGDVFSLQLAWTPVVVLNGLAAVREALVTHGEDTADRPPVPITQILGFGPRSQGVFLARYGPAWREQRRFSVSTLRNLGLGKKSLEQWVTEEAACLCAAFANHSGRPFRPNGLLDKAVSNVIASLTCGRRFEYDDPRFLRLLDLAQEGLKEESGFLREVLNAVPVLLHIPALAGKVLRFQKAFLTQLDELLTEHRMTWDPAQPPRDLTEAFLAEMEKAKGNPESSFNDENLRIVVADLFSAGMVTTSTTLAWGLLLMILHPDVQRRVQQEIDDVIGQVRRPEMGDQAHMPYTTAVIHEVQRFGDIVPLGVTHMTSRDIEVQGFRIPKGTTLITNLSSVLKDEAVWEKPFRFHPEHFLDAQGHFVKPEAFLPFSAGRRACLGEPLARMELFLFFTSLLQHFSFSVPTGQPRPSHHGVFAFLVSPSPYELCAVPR
The next data set concerns the target T1, CYP1A1 (Homo sapiens, UniProt P04798).
T1 sequence (P04798 1-512): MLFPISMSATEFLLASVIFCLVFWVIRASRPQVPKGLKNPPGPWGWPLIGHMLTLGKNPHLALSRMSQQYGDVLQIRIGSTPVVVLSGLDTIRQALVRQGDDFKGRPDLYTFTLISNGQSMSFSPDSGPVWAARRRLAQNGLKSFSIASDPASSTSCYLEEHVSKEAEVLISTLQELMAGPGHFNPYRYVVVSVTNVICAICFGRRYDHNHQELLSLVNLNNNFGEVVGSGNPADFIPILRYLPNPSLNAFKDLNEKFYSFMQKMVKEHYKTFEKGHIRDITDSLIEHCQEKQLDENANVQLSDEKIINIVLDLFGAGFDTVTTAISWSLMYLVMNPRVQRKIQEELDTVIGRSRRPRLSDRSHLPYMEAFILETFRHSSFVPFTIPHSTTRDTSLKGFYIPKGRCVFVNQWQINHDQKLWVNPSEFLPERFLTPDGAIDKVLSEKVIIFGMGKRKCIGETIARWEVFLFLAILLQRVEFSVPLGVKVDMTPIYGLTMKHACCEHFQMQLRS
In words: In vitro metabolism screening with recombinant CYP1A1. It is filed as in vitro ADME. The settings on record: 1 h, 37°C.

The target of the next data set is T2, CYP2C18 (Homo sapiens, UniProt P33260).
T2 sequence (P33260 26-490): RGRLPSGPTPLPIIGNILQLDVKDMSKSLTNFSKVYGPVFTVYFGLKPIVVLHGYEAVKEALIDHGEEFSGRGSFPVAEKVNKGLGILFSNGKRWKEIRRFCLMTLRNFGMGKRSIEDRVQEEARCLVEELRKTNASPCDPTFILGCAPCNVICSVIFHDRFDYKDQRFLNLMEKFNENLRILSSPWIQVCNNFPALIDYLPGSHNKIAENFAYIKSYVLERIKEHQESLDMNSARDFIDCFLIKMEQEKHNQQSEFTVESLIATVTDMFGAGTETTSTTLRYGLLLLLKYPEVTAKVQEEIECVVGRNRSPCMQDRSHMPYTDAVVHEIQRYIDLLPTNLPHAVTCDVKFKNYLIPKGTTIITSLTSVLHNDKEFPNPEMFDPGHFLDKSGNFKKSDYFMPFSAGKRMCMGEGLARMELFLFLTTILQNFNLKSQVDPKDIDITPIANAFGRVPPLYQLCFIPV
In words: In vitro metabolism screening with recombinant CYP2C18. It is filed as in vitro ADME. The settings on record: 1 h, 37°C.

Another data set concerns the target CYP2E1 (Homo sapiens, UniProt P05181). In words: In vitro metabolism screening with recombinant CYP2E1. The note with it: 1 h, 37°C. The data set is classed as in vitro ADME.
Another data set concerns the target T3, UGT2B7 (Homo sapiens, UniProt P16662).
T3 sequence (P16662 24-529): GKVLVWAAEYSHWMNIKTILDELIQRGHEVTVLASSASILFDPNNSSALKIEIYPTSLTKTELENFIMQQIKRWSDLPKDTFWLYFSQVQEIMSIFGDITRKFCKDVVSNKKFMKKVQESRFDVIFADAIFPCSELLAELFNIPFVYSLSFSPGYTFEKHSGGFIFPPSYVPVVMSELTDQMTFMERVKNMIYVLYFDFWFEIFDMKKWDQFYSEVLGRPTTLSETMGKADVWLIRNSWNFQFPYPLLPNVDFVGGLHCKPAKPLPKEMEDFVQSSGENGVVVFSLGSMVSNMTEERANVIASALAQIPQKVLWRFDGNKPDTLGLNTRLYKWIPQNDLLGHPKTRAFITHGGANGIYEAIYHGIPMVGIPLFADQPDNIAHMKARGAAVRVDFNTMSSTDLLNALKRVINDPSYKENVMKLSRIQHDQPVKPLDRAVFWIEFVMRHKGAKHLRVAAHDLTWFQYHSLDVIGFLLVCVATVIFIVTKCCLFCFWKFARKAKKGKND
Nature of the data set: In vitro metabolism screening with UGT2B7 Supersomes. The data set is classed as in vitro ADME. The note with it: 37°C.

Data set [1] can be described thus: Single-dose pharmacokinetics and brain distribution in rats. The note with it: rat; for t1/2 / half-life: 10 mg/kg i.p. The data set is classed as in vivo, male Sprague Dawley rats.
For data set [2], the system named is MDCK-MDR1 cell monolayers. The settings on record: 5 μM, 37°C, PBS; UV-HPLC limit of detection 100 ng/ml.
The conditions of data set [3]: humans ref 13; cited from earlier work.
A further data set deals with P-gp (MDR1). In words: in vitro. The settings on record: dog, MDCK-MDR1.
For data set [4] the following is noted: rhesus monkeys, plasma, single dose ref 24; cited from earlier work.
For data set [5] the following is noted: PET imaging, female baboons ref 25; cited from earlier work.
The target of the next data set is recombinant human P-gp (Homo sapiens, UniProt P08183). In words: P-gp ATPase activity. The settings on record: for Fold Stimulation of P-gp ATPase activity: relative to non treated.
Chain of recombinant human P-gp (P08183 whole entry): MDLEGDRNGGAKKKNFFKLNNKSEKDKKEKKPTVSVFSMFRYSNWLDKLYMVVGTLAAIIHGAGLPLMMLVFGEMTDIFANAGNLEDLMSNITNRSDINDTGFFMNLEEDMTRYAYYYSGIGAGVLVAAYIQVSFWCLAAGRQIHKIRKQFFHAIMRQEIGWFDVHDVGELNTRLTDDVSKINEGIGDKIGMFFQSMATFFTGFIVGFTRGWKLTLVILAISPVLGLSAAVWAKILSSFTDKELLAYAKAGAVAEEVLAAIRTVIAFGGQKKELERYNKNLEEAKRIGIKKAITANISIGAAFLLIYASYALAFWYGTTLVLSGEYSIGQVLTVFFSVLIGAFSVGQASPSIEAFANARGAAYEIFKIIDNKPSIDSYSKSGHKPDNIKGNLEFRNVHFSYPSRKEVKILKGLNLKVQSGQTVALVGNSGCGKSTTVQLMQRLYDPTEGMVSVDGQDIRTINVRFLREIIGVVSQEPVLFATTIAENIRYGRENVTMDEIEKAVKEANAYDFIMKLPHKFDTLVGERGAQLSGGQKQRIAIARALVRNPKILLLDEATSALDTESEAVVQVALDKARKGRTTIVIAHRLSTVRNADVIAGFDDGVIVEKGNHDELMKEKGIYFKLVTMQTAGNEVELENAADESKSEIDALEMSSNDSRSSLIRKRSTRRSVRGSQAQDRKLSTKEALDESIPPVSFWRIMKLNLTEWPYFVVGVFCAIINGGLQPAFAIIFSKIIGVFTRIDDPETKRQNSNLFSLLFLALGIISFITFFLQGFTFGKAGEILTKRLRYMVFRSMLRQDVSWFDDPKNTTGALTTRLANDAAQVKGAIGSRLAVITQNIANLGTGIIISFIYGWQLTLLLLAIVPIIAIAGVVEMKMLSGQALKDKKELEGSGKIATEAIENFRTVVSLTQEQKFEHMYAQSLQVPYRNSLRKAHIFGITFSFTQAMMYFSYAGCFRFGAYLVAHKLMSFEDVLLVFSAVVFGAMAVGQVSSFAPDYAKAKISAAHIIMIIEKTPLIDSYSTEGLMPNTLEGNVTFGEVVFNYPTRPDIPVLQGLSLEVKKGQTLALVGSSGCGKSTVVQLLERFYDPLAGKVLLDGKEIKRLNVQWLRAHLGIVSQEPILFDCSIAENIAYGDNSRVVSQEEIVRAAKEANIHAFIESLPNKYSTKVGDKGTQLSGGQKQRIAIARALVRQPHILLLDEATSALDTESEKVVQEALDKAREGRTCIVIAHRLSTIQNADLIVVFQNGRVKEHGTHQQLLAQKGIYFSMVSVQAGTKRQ
Another data set concerns P-gp. In words: in vitro. The settings on record: dog, MDCK-MDR1.
The mark [6] stands for this setting: male, Sprague Dawley, brain, ip, 10 mg/kg.
Setting [7] is: male, Sprague Dawley, plasma, ip, 10 mg/kg.

Several values for one entry are separate records, joined by “and”; a condition that tells them apart may be missing. Identical values can stand only once.

Chain of CYP2E1 (P05181 whole entry): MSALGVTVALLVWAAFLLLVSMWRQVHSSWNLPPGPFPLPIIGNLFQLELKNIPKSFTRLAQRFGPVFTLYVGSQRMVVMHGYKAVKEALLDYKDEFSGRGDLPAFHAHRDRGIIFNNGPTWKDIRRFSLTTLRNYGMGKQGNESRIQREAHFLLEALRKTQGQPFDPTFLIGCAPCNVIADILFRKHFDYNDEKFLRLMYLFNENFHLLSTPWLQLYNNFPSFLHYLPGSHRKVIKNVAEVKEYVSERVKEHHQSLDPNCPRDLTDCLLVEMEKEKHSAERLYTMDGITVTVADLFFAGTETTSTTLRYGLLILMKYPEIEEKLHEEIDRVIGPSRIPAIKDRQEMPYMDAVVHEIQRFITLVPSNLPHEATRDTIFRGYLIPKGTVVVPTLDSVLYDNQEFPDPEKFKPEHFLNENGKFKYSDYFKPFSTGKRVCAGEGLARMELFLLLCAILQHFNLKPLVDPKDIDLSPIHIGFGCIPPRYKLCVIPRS

`OC[C@@H](O)[C@@H](O)[C@H](O)[C@H](O)CO` [Mannitol, mannitol] showed a Papp in “in vitro” of 3.23 ×10⁻⁶ cm/s.

As for `COC(=O)[C@@H]1C[C@H](OC(C)=O)C(=O)[C@H]2[C@@]1(C)CC[C@H]1C(=O)O[C@H](c3ccoc3)C[C@]21C` [Salvinorin A], the “% reduction of initial concentration” value on CYP2D6 (5 μM) is 14.7±0.80% and 14.7(± 0.80) %; on CYP2D6 (50 μM), 10(± 1.2) %; at CYP1A1 (5 μM) it was 31.1±1.20% and 31.1(±1.20) %; on CYP1A1 (50 μM), 5.3(±2) %; at CYP2C18 (5 μM) it was 20.6(±1.00) %; at CYP2C18 (50 μM), 6(±1.2) %. Also, the “% reduction of initial concentration” value on CYP2E1 (5 μM) is given as 22(±0.80) %; on CYP2E1 (50 μM) it was 6.4(±1.6) %; on UGT2B7 (5 μM, two hour incubation), 51(± 4.00) %; at UGT2B7 (10 μM, 1 h), 18.1(± 5.20) %; at UGT2B7 (50 μM, 1 h) it was 7(±5.60) %. Besides, the t1/2 in data set [1] (brain) amounted to 36.1 min; in [1] (plasma), 75.4 min. Besides, the concentration ratio (Kp) in data set [1] (male, Sprague Dawley, brain and plasma, ip, 10 mg/kg) was 0.05. In addition, the area under the curve AUC(0-inf) in [1] (setting [6]) amounted to 20.6 ng·h/mL; in data set [1] (setting [7]) it was 410 ng·h/mL. In addition, the results for the exposure AUC(0-t) in data set [1] (setting [6]) and in [1] (setting [7]) were 13 ng·h/mL and 348 ng·h/mL, respectively. Further, the Cmax in data set [1] (setting [6]) was determined as 23.9 ng/mL; in [1] (setting [7]) it was 345 ng/mL. In addition, the Tmax in data set [1] (setting [6]) was 10 min; in [1] (male, Sprague Dawley, plasma and brain, ip, 10 mg/kg), 10 to 15 min; in data set [1] (setting [7]), 15 min. In addition, the half-life in data set [1] (male, Sprague Dawley, brain, ip, 10 mg/kg, t1/2, brain) was determined as 36 min; in [1] (male, Sprague Dawley, plasma, ip, 10 mg/kg, t1/2, plasma) it was 75 min. Besides, in data set [1] (setting [7]), the apparent clearance CL/F was 433 mL/min/kg. The k el in data set [1] (setting [7]) is 0.000153 s⁻¹; in data set [1] (male, Sprague-Dawley, brain, ip, 10 mg/kg), 3.19e-05 s⁻¹. This compound also came in with a Vd/F in [1] (male, Sprague-Dawley, plasma, ip, 10 mg/kg) of 47.1 L/kg. Also, in data set [2], the “absorptive transport (Papp A→B)” value is listed as “not detected”. For the same compound, the “duration of hallucinogenic experience” value in [3] is on record as no more than 15 min. The “time to appearance of hallucinogenic experience” value in [3] is recorded as “less than 1 min”. In the data set with P-gp (MDR1), this compound showed an apparent permeability from basolateral to apical (Papp B→A) at 5 μM of 40.7 ×10⁻⁶ cm/s. Also, the elimination half-life in [4] was 56.6 ± 24.8 min. Also, in data set [5], the “time to peak brain uptake after dosing” value was 40 s. Also, the “rate of ATP consumption (P-gp ATPase activity)” value on recombinant human P-gp (2.5 μM) was 50.94 ± 17.87 pmol/μg P-gp/min; on recombinant human P-gp (5 μM), 47.48 ± 3.36 pmol/μg P-gp/min and 47.78 ± 3.36 ^a pmol/μg P-gp/min; on recombinant human P-gp (10 μM), 41.14 ± 5.86 pmol/μg P-gp/min and 41.14 ± 5.86 ^b pmol/μg P-gp/min; on recombinant human P-gp (25 μM), 31.08 ± 21.18 pmol/μg P-gp/min. The “Fold Stimulation of P-gp ATPase activity” value on recombinant human P-gp (2.5 μM) came to 2.39; at recombinant human P-gp (5 μM), 2.24; on recombinant human P-gp (10 μM), 1.93; on recombinant human P-gp (25 μM), 1.46.

As to `CC(=O)O[C@H]1C(=O)[C@@]2(C)[C@H]([C@H](OC(=O)c3ccccc3)[C@]3(O)C[C@H](OC(=O)[C@H](O)[C@@H](NC(=O)c4ccccc4)c4ccccc4)C(C)=C1C3(C)C)[C@]1(OC(C)=O)CO[C@@H]1C[C@@H]2O` [paclitaxel], in the data set on P-gp, the efflux ratio came to 15.2.
